According to article PMC5929447 (Oncotarget, 2018):
Where “and” joins values, the source holds several entries; their conditions need not be identical. Equal entries are not always repeated.

Legend:
[1] = system: caspase-3 activity in RS4;11 tumor xenografts; experiment: Caspase-3 activity in RS4;11 tumor xenografts; assay type: in vivo; details: 100 mg/kg single oral gavage, 16 h post dosing, SCID mice
Experimental: Body weights were recorded and tumors were measured with digital calipers twice to three times a week. Tumor volume was calculated using the formula: length × width^2/2. Percent changes in body weights was calculated as (BWcurrent - BWinitial)/(BWinitial) × 100. Data is presented as percent body weight change from the day of treatment initiation. When tumors reached approximately 200 mm^3 for efficacy studies or 300 mm^3 for pharmacodynamic studies, mice were randomized. […] Mice were treated via oral gavage at 10 ml/kg with the doses and schedules described in the figure. For pharmacodynamic studies, blood and tumors were removed 16 h post dosing and immediately snap-frozen. Total proteins were extracted from the tumors and caspase-3 activity was assessed in triplicate using CaspACE® Assay System (Promega). Platelet cell counts were determined 16 hours post dosing using Coulter AcT diff (Beckman).

RS4;11 cell line = experiment: CellTiter-Glo cell viability, RS4;11; assay type: cell-based; details: Homo sapiens, 72 h of treatment
Experimental: (§1) Cells were seeded into 96-well plates and treated at 8 points with 1:2 serial dilution of compounds. Cell viability was assessed and assayed for viability using CellTiter-Glo reagent (Promega) following the manufacturer's instructions. Plates were read using Tecan luminescence plate reader. Results were normalized to the viability of cells without compounds (control wells). The IC50 values were calculated using nonlinear regression algorithms in XCell software.

BCL-2 = BCL-2 (Homo sapiens, UniProt P10415); experiment: Isothermal titration calorimetry (ITC), BCL-2; details: binding to BCL-2
BCL-2, sequence (P10415 whole entry): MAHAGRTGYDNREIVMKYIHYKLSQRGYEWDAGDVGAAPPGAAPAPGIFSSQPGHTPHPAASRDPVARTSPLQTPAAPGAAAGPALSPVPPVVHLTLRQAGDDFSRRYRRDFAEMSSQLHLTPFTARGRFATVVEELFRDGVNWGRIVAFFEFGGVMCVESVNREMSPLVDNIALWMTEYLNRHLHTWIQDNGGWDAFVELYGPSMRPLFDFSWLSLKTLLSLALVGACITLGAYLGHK
Experimental: The protein was dialyzed prior to use in 2 L of 25 mM HEPES, 150 mM NaCl, 5% glycerol (v/v), 0.5% MTG (v/v) at pH 7.4 for 3 hours at room temperature. The protein was dialyzed using a 3.5 K MWCO Slide-A-Lyzer™ cassette. The protein solution was recovered, spin-filtered through a […] frit. The filtered protein was quantified by UV absorbance at 280 nm using an extinction coefficient of 36440 M^-1cm^-1. 500 ml of dialysis buffer was retained (remainder used to rinse out SCHOT bottle) and degassed for a minimum of 30 mins under vacuum with constant stirring. […] The solutions were carefully matched to ensure same solvent and buffer conditions were present in both syringe and cell (this is to minimize heat of dilution effects). The final solution was the dialysis buffer plus 1% DMSO and 0.05% P20. The experiment was performed over 13 injections with stirring at 1000 rpm, gain setting low and at 25° C. Pure water was used in the reference cell. The first injection was 0.5 μl with a duration of 1 second with a gap of 150 seconds until the further 12 injections of 3.05 μl with a duration 6.1 seconds and a 240 second interval between injections. Data was analyzed using the vendor supplied software, PEAQ-ITC Analysis Software. The data model used was the single site model. The data shown is the average of 2 or 3 independent experiments.

BCL-XL/BAX complex = BCL-XL/BAX complex (Homo sapiens, UniProt Q07817); experiment: Co-immunoprecipitation in BCL-XL-overexpressing HeLa cells; details: 2 h
BCL-XL/BAX complex, sequence (Q07817 whole entry, one chain of several): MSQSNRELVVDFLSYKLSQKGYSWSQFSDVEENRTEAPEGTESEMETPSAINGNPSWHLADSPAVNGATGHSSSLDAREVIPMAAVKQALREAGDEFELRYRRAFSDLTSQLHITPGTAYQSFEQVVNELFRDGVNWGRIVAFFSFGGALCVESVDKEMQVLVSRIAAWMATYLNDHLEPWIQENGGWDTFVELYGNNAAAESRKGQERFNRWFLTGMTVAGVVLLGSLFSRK
Experimental: Effecten reagent (Qiagen), with 3xFlag-tagged BCL-XL
24 h later, transfected Hela and RS4;11
were put under neomycin selection (800 µg/ml, Invitrogen) were then subjected to immunoprecipitation with anti-

MCL-1 = MCL-1 (Homo sapiens, UniProt Q07820); experiment: Fluorescence polarization (FP) with Fluorescein-PUMA, MCL-1; assay type: binding
MCL-1, sequence (Q07820 whole entry): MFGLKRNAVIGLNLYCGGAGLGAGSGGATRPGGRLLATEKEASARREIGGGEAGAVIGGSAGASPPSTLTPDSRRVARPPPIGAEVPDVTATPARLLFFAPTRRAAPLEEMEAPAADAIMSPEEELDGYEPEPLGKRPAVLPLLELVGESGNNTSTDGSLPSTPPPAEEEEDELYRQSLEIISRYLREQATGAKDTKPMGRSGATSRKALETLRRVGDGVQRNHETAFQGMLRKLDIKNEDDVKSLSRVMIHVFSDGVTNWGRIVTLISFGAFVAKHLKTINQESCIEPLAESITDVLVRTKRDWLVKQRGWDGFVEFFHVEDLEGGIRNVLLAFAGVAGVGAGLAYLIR

platelets = experiment: Platelet counts in RS4;11-bearing mice; assay type: in vivo; details: 100 mg/kg single oral dose, 16 h post dosing
Experimental: (§2) When tumors reached approximately 200 mm^3 for efficacy studies or 300 mm^3 for pharmacodynamic studies, mice were randomized. […] Mice were treated via oral gavage at 10 ml/kg with the doses and schedules described in the figure.
For pharmacodynamic studies, blood and tumors were removed 16 h post dosing and immediately snap-frozen. Total proteins were extracted from the tumors and caspase-3 activity was assessed in triplicate using CaspACE® Assay System (Promega). Platelet cell counts were determined 16 hours post dosing using Coulter AcT diff (Beckman).

H146 cell line = experiment: CellTiter-Glo cell viability, H146; assay type: cell-based; details: Homo sapiens, NCI-H146; 72 h of treatment
Experimental: as §1

BCL-2/BAX complex = BCL-2/BAX complex (Homo sapiens, UniProt P10415); experiment: Co-immunoprecipitation in BCL-2-overexpressing HeLa cells; assay type: cell-based; details: 2 h
BCL-2/BAX complex, sequence (P10415 whole entry, one chain of several): as the sequence (P10415 whole entry) above

[2] = system: isolated platelets from healthy volunteers; experiment: Apoptosis (annexin V) in isolated platelets; assay type: cell-based; details: Homo sapiens, Platelet; 4 healthy donors, 3 h; read-out: EC50 apoptosis (PS+) in isolated platelets
Experimental: Peripheral blood samples from CLL patients were obtained with informed patient consent and local ethical committee approval (UHL-09723). […] Interphase fluorescence in situ hybridization (FISH) was performed for detection of 17p13 deletion. Mantle cell lymphoma (MCL) primary cells were obtained after informed consent from MCL patients treated at the department of clinical hematology from the University Hospital of Nantes, France. Peripheral MCL cells from blood or pleural effusion, were purified after Ficoll-Hypaque separation with immuno-magnetic anti-CD19 beads (Miltenyi, Paris, France). Primary cells were cultured in RPMI-1640 supplemented with 10% FCS and 2 mM glutamine. Human platelets were isolated from citrate blood donated by healthy volunteers. Washed platelets were cultured in Hepes-buffered saline (HBS, 10 mM Hepes, 150 mM NaCl, 5 mM KCl, 1 mM MgSO4, pH 7.4).
EC50 values were calculated using GraphPadPrism (non-linear fit, sigmoidal dose response, variable slope). […] Cell death was assessed in the CD19+ primary MCL cells by annexinV-FITC staining combined with an analysis of altered cellular morphology (lower FCS). Fluorescence was analyzed on FACSCalibur.

[3] = system: BCL-XL-dependent FL5.12 cells; experiment: Apoptosis (annexin V/PI) in FL5.12 cells expressing BCL-XL upon IL-3 withdrawal; details: 24 h upon IL-3 withdrawal
[4] = system: BCL-2-dependent FL5.12 cells; experiment: Apoptosis (annexin V/PI) in FL5.12 cells expressing BCL-2 upon IL-3 withdrawal; assay type: cell-based, murine; details: 24 h upon IL-3 withdrawal
Toledo xenograft = Toledo xenograft efficacy; assay type: in vivo, mice; details: 200 mg/kg oral five times a week for 3 weeks, day 21
Experimental: Experiments were performed in SCID/beige female mice from Charles River Laboratories, Massachusetts, USA. Animals, approximately 7-8 weeks of age at the start of the treatment were allowed to acclimate in animal facility with access to food and water ad libitum for 3 days prior to manipulation. Animals were handled in accordance with IACUC regulations and guidelines for experiments performed in the USA and with European and French regulation for the protection of vertebrate animals for experiments performed in France. Animal well-being and behavior, including grooming and ambulation were monitored at least once a day. General health of mice was monitored and mortality recorded daily. Any moribund animals were sacrificed.
RS4;11 Acute Lymphoblastic Leukemia cell lines was obtained from ATCC. Toledo (Diffuse Large B-Cell Lymphoma) human cell lines were obtained internally through Bioresources and the Novartis-Cancer Cell Line Encyclopedia. Cells were free of Mycoplasma and murine viral contamination in the IMPACT VIII PCR assay panel (IDEXX RADIL, IDEXX laboratories INC, Westbrook, ME, USA). Cells used for subcutaneous implantation were cultured in RPMI plus 10% FBS at 37° C in a humidified atmosphere containing 5% carbon dioxide). […] Cells were resuspended in a 1:1 mixture of cold DPBS (Dulbecco's Phosphate-Buffered Saline) and Matrigel™ (Becton-Dickinson #354234) at a concentration of 3 × 10^7 cells/ml for Toledo cells, and of 1 × 10^7 cells/ml for RS4;11 cells.
For each experiment, female SCID/beige mice were implanted subcutaneously (right axillary region) with 3 × 10^6 Toledo or RS4;11 (1 × 10^6 cells for efficacy studies and 1 × 10^7 cells for pharmacodynamics studies) suspended in 1:1 mixture of cold DPBS and Matrigel™ in a total volume of 100 μl. Body weights were recorded and tumors were measured with digital calipers twice to three times a week. Tumor volume was calculated using the formula: length × width^2/2. Percent changes in body weights was calculated as (BWcurrent - BWinitial)/(BWinitial) × 100. Data is presented as percent body weight change from the day of treatment initiation.
as §2
For efficacy studies, percent treatment/control (T/C) values were calculated using the following formula: %T/C = 100 × ΔT/ΔC if ΔT > 0. Regression = 100 × ΔT/Tinitial if ΔT < 0 where: T = mean tumor burden of the drug-treated group on the final day of the study; ΔT = mean tumor burden of the drug-treated group on the final day of the study – mean tumor burden of the drug-treated group on initial day of dosing; Tinitial = mean tumor burden of the drug-treated group on initial day of dosing; C = mean tumor burden of the control group on the final day of the study; and ΔC = mean tumor burden of the control group on the final day of the study – mean tumor burden of the control group on initial day of dosing. If the tumor volume was less than 14 mm^3 for more than 3 consecutive measurements, animals were considered in complete regression (CR).

BFL-1 = target: T1, BFL-1 (Homo sapiens, UniProt Q16548); experiment: Fluorescence polarization (FP) with Fluorescein-PUMA, BFL-1; details: at 3E-05 M
T1 sequence (Q16548 1-175): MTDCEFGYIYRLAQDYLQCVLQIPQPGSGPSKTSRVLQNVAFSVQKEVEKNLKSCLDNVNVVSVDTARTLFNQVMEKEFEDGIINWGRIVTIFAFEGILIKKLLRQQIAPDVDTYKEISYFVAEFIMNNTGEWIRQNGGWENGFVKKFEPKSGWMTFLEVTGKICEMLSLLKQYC
Experimental: Final concentrations of MCL-1, BFL-1, BCL-2 and BCL-XL proteins were 10, 10, 10 and 20 nM respectively. The assay plates were incubated for 2 hours at room temperature and the FP was measured on a Synergy 2 reader (Ex. 528 nm, Em. 640 nm, Cut-off 510 nm). The binding of increasing doses of compound was expressed as a percentage reduction in mP compared to the window established between ‘DMSO only’ and ‘total inhibition’ control (30 μM PUMA). […] The KI was subsequently calculated as previously described [42].

SMILES | caspase-3 activity in tumor, times higher than in vehicle-treated animals [1] | IC50 (RS4;11 cell line) | N (sites), stoichiometry (BCL-2) | ∆H (enthalpy delta) (BCL-2) | effect on BCL-XL/BAX complex in BCL-XL-overexpressing HeLa cells (BCL-XL/BAX complex) | FP_MCL-1, % of inhibition at the maximal tested concentration (MCL-1; at 10E-06 M) | platelet counts in vivo (platelets) | IC50 (H146 cell line) | effect on BCL-2/BAX complex in BCL-2-overexpressing HeLa cells (BCL-2/BAX complex) | EC50 [2] | apoptosis induction (PS+ cells) in BCL-XL-dependent FL5.12 cells [3] | apoptosis induction (PS+ cells) in BCL-2-dependent FL5.12 cells [4] | FP_MCL-1, % of inhibition at the maximal tested concentration (MCL-1; at 30E-06 M) | % T/C (Toledo xenograft) | Mean TV change (Toledo xenograft; mean ± s.e.m.) | FP_BFL-1, % of inhibition at the maximal tested concentration (BFL-1)
CC1(C)CCC(c2ccc(Cl)cc2)=C(CN2CCN(c3ccc(C(=O)NS(=O)(=O)c4ccc(N[C@H](CCN5CCOCC5)CSc5ccccc5)c(S(=O)(=O)C(F)(F)F)c4)cc3)CC2)C1 [ABT-263, reference compound] | about 20 times | 41.5 nM | 0.8 sites | –13.1 kcal/mol | disrupt both BCL-2/BAX and BCL-XL/BAX complexes | 9.4%@10E-06 | strong decrease of platelet counts | 49.7 nM | disrupt both BCL-2/BAX and BCL-XL/BAX complexes |  |  |  |  |  |  | 
CN(C)CC[C@H](CSc1ccccc1)Nc1ccc(S(=O)(=O)NC(=O)c2ccc(N3CCN(Cc4ccccc4-c4ccc(Cl)cc4)CC3)cc2)cc1[N+](=O)[O-] [ABT-737, reference compound] |  |  |  |  |  |  |  |  |  | 30 nM | efficiently induced apoptosis | efficiently induced apoptosis |  |  |  | 
CC1(C)CCC(CN2CCN(c3ccc(C(=O)NS(=O)(=O)c4ccc(NCC5CCOCC5)c([N+](=O)[O-])c4)c(Oc4cnc5[nH]ccc5c4)c3)CC2)=C(c2ccc(Cl)cc2)C1 [ABT-199, reference compound] |  |  | 1.1 sites | –12.1 kcal/mol |  |  |  |  |  |  |  |  | 14.9% and 11.8% | 6 % T/C | 104.44 ± 70.31 mm3 | 6.4%@3E-05
